Usually IC50 stands for the point on the concentration scale where inhibition reaches its midpoint.

The first assay relates to human leukocytes (LTB4 production, calcium ionophore stimulated). Briefly: Human Leukocyte LTB4 Inhibition Assay. The class given is cell-based. The following applies: LTB4 by ELISA, read-out: LTB4 HLA IC50. The essentials:
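Human peripheral leukocytes (1.25×10^5 cells/ml) were isolated by dextran sedimentation and hypotonic RBC lysis. They were preincubated with drug 5 min at 37 °C, then stimulated 30 min at 37 °C with calcium ionophore […] (working solution 1.25 mM). Supernatant LTB4 was measured by ELISA. IC50 versus vehicle came from nonlinear regression of % inhibition against log concentration.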
(In general: ELISA stands for enzyme-linked immunosorbent assay.)
With `CCC(O)(c1nnc(NCc2ccn3c(-c4ccc(F)cc4)c(C(N)=O)cc3c2)o1)C(F)(F)F` (single isomer, unassigned) [Compound 1-21, 3-(4-Fluoro-phenyl)-7-{[5-(1-hydroxy-1-trifluoromethyl-propyl)-[1,3,4]oxadiazol-2-ylamino]-methyl}-indolizine-2-carboxylic acid amide], the IC50 was less than 300 nM.

Still in this assay, the particulars now being: Leukocyte, LTB4 by ELISA, read-out: LTB4 HLA IC50.
In the case of `CCOC(=O)c1cc2cc(Cn3cc(C(O)(CC)C(F)(F)F)nn3)ccn2c1C(C)C` (single isomer, unassigned) [Compound 1-77, 7-[4-(1-Hydroxy-1-trifluoromethyl-propyl)-[1,2,3]triazol-1-ylmethyl]-3-isopropyl-indolizine-2-carboxylic acid ethyl ester], the IC50 is less than 300 nM.
As to `CCOC(=O)c1cc2cc(Cn3cc(C(O)(CC)C(F)(F)F)nn3)ccn2c1-c1ccc(C)nc1` (stereo not drawn) [Compound 1-69, 7-[4-(1-Hydroxy-1-trifluoromethyl-propyl)-[1,2,3]triazol-1-ylmethyl]-3-(6-methyl-pyridin-3-yl)-indolizine-2-carboxylic acid ethyl ester], the IC50 is less than 300 nM.
As to `CCC(O)(c1cn(Cc2ccn3c(-c4ccc(C)nc4)c(C#N)cc3c2)nn1)C(F)(F)F` (single isomer, unassigned) [Compound 1-76, 7-[4-(1-Hydroxy-1-trifluoromethyl-propyl)-[1,2,3]triazol-1-ylmethyl]-3-(6-methyl-pyridin-3-yl)-indolizine-2-carbonitrile], the half-inhibitory concentration (IC50) is less than 300 nM.
Same read-out and setting: the figure for `CCC(O)(c1cn(Cc2ccn3c(-c4ccnc(C)c4)c(C(N)=O)cc3c2)nn1)C(F)(F)F` (stereo not drawn) [Compound 1-64, 7-[4-(1-Hydroxy-1-trifluoromethyl-propyl)-[1,2,3]triazol-1-ylmethyl]-3-(2-methyl-pyridin-4-yl)-indolizine-2-carboxylic acid amide] is greater than 1000 nM; for `CCC(O)(c1cn(Cc2ccn3c(C(C)=O)c(C(=O)OC)cc3c2)nn1)C(F)(F)F` (stereo not drawn) [Compound 1-66, 3-Acetyl-7-[4-(1-hydroxy-1-trifluoromethyl-propyl)-[1,2,3]triazol-1-ylmethyl]-indolizine-2-carboxylic acid methyl ester] it is less than 300 nM.
The same measure, in the same setting: the figure for `CCOC(=O)c1cc2cc(Cn3cc(C(O)(CC)C(F)(F)F)nn3)ccn2c1-c1cnc2ccccc2c1` (stereo not drawn) [Compound 1-52, 7-[4-(1-Hydroxy-1-trifluoromethyl-propyl) [1,2,3]triazol-1-ylmethyl]-3-quinolin-3-yl-indolizine-2-carboxylic acid ethyl ester] is less than 300 nM; for `CCC(O)(c1cn(Cc2ccn3c(-c4cccnc4)c(C(N)=O)cc3c2)nn1)C(F)(F)F` (stereo not drawn) [Compound 1-25, 7-[4-(1-Hydroxy-1-trifluoromethyl-propyl)-[1,2,3]triazol-1-ylmethyl]-3-pyridin-3-yl-indolizine-2-carboxylic acid amide] it is greater than 1000 nM; for `CCC(O)(c1cn(Cc2ccn3c(-c4ccc(F)cc4)c(C(=O)N(C)OC)cc3c2)nn1)C(F)(F)F` (stereo not drawn) [Compound 1-51, 3-(4-Fluoro-phenyl)-7-[4-(1-hydroxy-1-trifluoromethyl-propyl)-[1,2,3]triazol-1-ylmethyl]-indolizine-2-carboxylic acid methoxy-methyl-amide] it is less than 300 nM.

The values above are taken from patent US20130005721A1, “INDOLIZINE INHIBITORS OF 5-LIPOXYGENASE” (PANMIRA PHARMACEUTICALS, LLC, priority 2009, published 2013).
